What was measured:
[1] = system: HCV RNA; test: Metabolic labelling of HCV RNA in HCV replicon cell line 5-15 in the presence of actinomycin D; format: cell-based, Hepatitis C Virus; conditions: 50 μM, replicon cell line 5-15, actinomycin D, overnight [33P]-orthophosphate labelling
Protocol: 1×10^6 Huh7-5-15 replicon cells and Huh-pcDNA3 cells were seeded into 10 cm culture plates and grown as described. After 24 hours cells were washed with phosphate-free medium and incubated in phosphate-free medium supplemented with 10% phosphate-free calf serum. Actinomycin D at a final concentration of 5 μg/ml was added to the cells together with the tested compounds at final concentrations of 10 and 50 μM. After 30 minutes of incubation cells were supplemented with 200 μCi ^33P-orthophosphate per dish and incubated over night. After cell lysis, RNA isolation was performed using the RNeasy mini kit (QIAGEN) according to recommendations given by the manufacturer. Northern blot was carried out according to standard procedures and autoradiography of the membrane was performed.

[2] = system: CKI isoforms α, δ and ε; test: In-vitro kinase assay, GST-NS5A phosphorylation by Mono Q Peak I fractions of Huh-7 cells; format: biochemical, human; conditions: CKI-enriched partially purified Mono Q fraction of Huh-7 cells, FIG. 6A
Protocol: Confluent 15 cm dishes of Huh-7 cells were lysed in 500 μl lysis buffer per dish containing 20 mM Tris (tris-(hydroxymethyl)-amino methane) pH 8.0, 10 mM NaF (sodium fluoride), 2 mM MgCl2 (Magnesium chloride), 1 mM DTT (dithiothreitol), 2 mM EGTA (ethylene glycol-bis(β-amino-ethyl ether)-N,N,N′,N′-tetraacetic acid), 1 mM PMSF (phenylmethylsulfonyl fluoride), 0.1% NP40 (Nonidet P-40), 10 μg/ml Aprotinin, 10 μg/ml Leupeptin, and 1 mM orthovanadate. Lysates were cleared by centrifugation (20 min, 13000 rpm, 4° C.) and filtered using a 0.45 μm syringe filter (Nalgene). This cleared material was further purified by a 1 ml Mono Q column (Amersham Biosciences) equilibrated with lysis buffer without additives. After washing the column, bound proteins were eluted with lysis buffer containing 1 M NaCl in a step gradient modus. Eluted proteins were collected in 1 ml fractions, systematically pooled, dialysed against 50 mM Tris pH 7.5, 10 mM NaF, 1 mM DTT, 0.01% Triton X-100 and stored at −80° C. Chromatography runs were performed on a AKTA explorer 10 system (Amersham Biosciences). Samples were subsequently assayed by in-vitro kinase assays and western blot analysis.
GST-NS5A immobilized to Glutathione Sepharose 4B beads (Amersham Biosciences) was washed twice with 500 μl kinase buffer (50 mM Tris pH 7.5, 10 mM MgCl2, 0.5 mM DTT). […]

[3] = system: HCV replicons; test: Luciferase reporter assay of HCV replicons in the Huh-5-2 cell line; format: cell-based, Hepatitis C Virus; conditions: for % activity (luciferase, replicon RNA levels): 3 days, Huh-5-2, percentage of DMSO controls
Excerpt: (§1) The Huh-5-2 cell line carries the persistant bicistronic replicon I389luc-ubi-neo/NS3-3′/5.1 that expresses a firefly luciferase-ubiquitin-neomycin phosphotransferase fusion protein under the control of the HCV 5′ UTR and the NS3-5B HCV polyprotein that harbors the cell culture adaptive mutation of NK5.1. (J. Virol. 75:4614-4624, 2001) and is driven by the EMCV-IRES. Autonomously replicating HCV RNA replicons are detectable by Northern blot or via expression of the luciferase part of the fusion protein in a luciferase reporter assay. For luciferase reporter assays, Huh-5-2 cells were seeded at 2500 cells per well in 96 well plates in medium without G418. […] On day 3 after addition of compounds, Alamar Blue™ solution (Serotec), which contains a redox indicator, was added to the cells to measure cell proliferation and compound cytotoxicity. After incubation for 3-4 hours, fluorescence was monitored at the wavelengths of 560 nm and 590 nm with a Wallac 1420 multilabel counter. For the luciferase assay, the cells were subsequently washed twice with PBS without sodium hydrogen carbonate (Life Technologies GmbH, Karlsruhe), and luciferase activity was determined with the LucLite Plus Assay Kit (Packard Bioscience B.V.) according to the manufacturer's instructions in a Wallac 1450 Microbeta Luminescence counter.

[4] = system: Huh-5-2 replicon cells; test: Alamar Blue toxicity assay in Huh-5-2 replicon cells; format: cell-based, human; conditions: for % of cell viability: 3 days, Huh-5-2, percentage of DMSO controls
Excerpt: as §1

## C[S+]([O-])c1ccc(-c2nc(-c3cccc(I)c3)c(-c3ccncc3)[nH]2)cc1 (centres unmarked) [Compound 39, 4-[5-(3-Iodo-phenyl)-2-(4-methanesulfinyl-phenyl)-3H-imidazole-4-yl]-pyridine]
[1]
  synthesis of HCV RNA: reduced
[2]
  inhibitory effect on NS5A-phosphorylating kinase activity present in the Peak I fractions: potent inhibitor
[3]; 1.25 μM
  % activity (luciferase, replicon RNA levels): 117%
[3]; 2.5 μM
  % activity (luciferase, replicon RNA levels): 104%
[3]; 5 μM
  % activity (luciferase, replicon RNA levels): 89%
[3]; 10 μM
  % activity (luciferase, replicon RNA levels): 28%
[3]; 20 μM
  % activity (luciferase, replicon RNA levels): 0%
[3]; Hepatitis C virus, 72 h, Huh-5-2, 3 days, read-out: IC50, replication of subgenomic HCV replicon RNA in the luciferase reporter assay
  IC50: 9 µM
[4]; 1.25 μM
  % of cell viability: 108%
[4]; 2.5 μM
  % of cell viability: 105%
[4]; 5 μM
  % of cell viability: 109%
[4]; 10 μM
  % of cell viability: 114%
[4]; 20 μM
  % of cell viability: 72%
[4]; up to a concentration of 10 μM, Huh-5-2
  Toxicity: low

— US20050203155A1, “Imidazole compounds and human cellular proteins casein kinase I alpha, delta and epsilon as targets for medical intervention against Hepatitis C Virus infections” (priority 2002, published 2005)
